Data reported in PMC3517986 (Biochemical Journal, 2012).
“Also recorded” adds a separate entry of the source.

Legend:
WDR5 [1] = biological target: T1, WDR5 (Homo sapiens, UniProt P61964); type: binding; settings: fluorescence polarization, 40 nM FITC-WIN peptide, 5 μM WDR5, triplicate
WDR5 [2] = biological target: T1, WDR5; assay: ITC; type: binding
[3] = biological target: MLL–WDR5–RbBP5 core complex (trimeric complex) (Homo sapiens, UniProt P61964); assay: Methyltransferase activity of trimeric MLL complex; type: biochemical
[4] = biological target: MLL–WDR5–RbBP5–ASH2L complex (Homo sapiens, UniProt P61964); assay: Methyltransferase activity of tetrameric MLL complex; type: biochemical; settings: tetrameric MLL complex at 10, 50 and 125 nM; not calculated owing to incomplete fitting
SETD7 = assay: HMT selectivity panel: SETD7; type: biochemical, human; settings: concentrations up to 100 μM
G9a = assay: HMT selectivity panel: G9a; type: biochemical, human; settings: concentrations up to 100 μM
EHMT1 = assay: HMT selectivity panel: EHMT1; type: biochemical, human; settings: concentrations up to 100 μM
SUV39H2 = assay: HMT selectivity panel: SUV39H2; type: biochemical, human; settings: concentrations up to 100 μM
SETD8 = assay: HMT selectivity panel: SETD8; type: biochemical, human; settings: concentrations up to 100 μM
PRMT3 = assay: HMT selectivity panel: PRMT3; type: biochemical, human; settings: concentrations up to 100 μM
PRMT5_MEP50 complex = assay: HMT selectivity panel: PRMT5; type: biochemical, human; settings: concentrations up to 100 μM

Kdis (Kdisplacement) (WDR5 [1]) | Kd (WDR5 [2]) | IC50 ([3]; IC50, 125 nM (0.125 μM) trimeric MLL complex) | IC50 ([3]; IC50, 500 nM trimeric MLL complex) | IC50 ([3]; IC50, 1000 nM trimeric MLL complex) | IC50 relative to trimeric complex [4] | Structure (SMILES) | inhibitory effect (SETD7) | inhibitory effect (G9a) | inhibitory effect (EHMT1) | inhibitory effect (SUV39H2) | inhibitory effect (SETD8) | inhibitory effect (PRMT3) | inhibitory effect (PRMT5_MEP50 complex)
12 ± 1 µM | 5.5 ± 0.6 µM |  |  |  |  | CN1CCN(c2ccc([N+](=O)[O-])cc2NC(=O)c2ccccc2)CC1 [WDR5-0101, N-(2-(4-methylpiperazin-1-yl)-5 nitrophenyl)benzamide] |  |  |  |  |  |  | 
3.0 ± 0.1 µM | 0.45 ± 0.02 µM | 39 ± 10 µM | 83 ± 10 µM | 280 ± 12 µM | significantly higher | COC(=O)c1ccc(N2CCN(C)CC2)c(NC(=O)c2cccc(OC)c2)c1 [WDR5-0103, methyl-3-(3-methoxybenzamido)-4-(4-methylpiperazin-1-yl)benzoate] | no inhibitory effect; also recorded: did not affect methyltransferase activity | no inhibitory effect | no inhibitory effect | no inhibitory effect | no inhibitory effect | no inhibitory effect | no inhibitory effect
